Tested on: C. trachomatis
Assay: C. trachomatis inclusion body formation in HeLa 229 cells after pre-incubation with single catechins (Example 2)
Assay type: cell-based, Chlamydia trachomatis
Details: incubated for 90 minutes at 37° C.
Protocol: As test Chlamydia was used C. trachomatis strain. Chlamydia capable of forming 10^4 inclusion bodies was incubated at 37° C. for 90 minutes in a SPG solution containing (−)-epicatechin gallate or (−)-epigallocatechin gallate in various concentratIons. After completion of the incubation, each solution was inoculated onto Hela 229 cell cultivated by monolayer culture and adsorbed by centrifugation at 1,500 rpm for 60 minutes. Thereafter, the inoculum was removed and culture medium for Chlamydia (Eagle Minimum Essential Culture Medium containing 1 μg/ml cycloheximide) was added and cultivation was performed at 37° C. for 72 hours. After completion of cultivation, the culture medium was removed and the cells were fixed with methanol and then stained with FITC-labeled anti-C. trachomatis monoclonal antibody, followed by counting the number of inclusion bodies of C. trachomatis.

Row | Compound | concentration that completely inhibited the growth of C. trachomatis [mg/mL]
1 | O=C(O[C@@H]1Cc2c(O)cc(O)cc2O[C@@H]1c1ccc(O)c(O)c1)c1cc(O)c(O)c(O)c1 [(−)-epicatechin gallate] | 0.8
2 | (−)-epigallocatechin gallate | 1.6

From US20020006447A1, “Anti-chlamydia agent” (Mitsui Norin Co., Ltd., priority 1998, published 2002)
